A word on the logP: it is the decadic logarithm of the partition coefficient of the neutral form, usually between octanol and water. High values mean higher lipophilicity, low ones lower lipophilicity.

The values below come from US9205156B2, “Molecular imaging agents” (HADASIT MEDICAL RESEARCH SERVICES & DEVELOPMENT LIMITED, priority 2010, dated 2015).

Series [1] can be described thus: Tracer biodistribution studies in mice (γ-counter, % ID/g). To be noted: BALB/c Ola/Hsd, mouse, in vivo. As for the experimental part: Compounds [^11C]-1, [^11C]-2, [^11C]-3, [^11C]-4, [^11C]-6, [^11C]-7 and Technetium-99 m methoxy isobutyl isonitrile ([^99mTc]MIBI) biodistribution studies were carried out with BALB/c Ola/Hsd mice (7-8 week). Tracers were injected in a 10% EtOH/saline solution as vehicle. Either [^11C]-1 (62±15 μCi; […]; 122±13 μL), [^11C]-2 (68±12 μCi; 2.5±0.4 MBq; 188±1.3 μL), [^11C]-3 (70±17 μCi; 2.6±0.6 MBq; 185±5 μL), [^11C]-4 (18±5 μCi; […]; 195±2.2 μL or 1.24±0.93 MBq, 229±63 μL), [^11C]-6 (1.95±0.21 MBq, 83±41 μL), [^11C]-7 (2.01±0.16 MBq, 169±73 μL) or [^99mTc]mibi (14.2±1.7 μCi; 3.6±0.4 MBq; 97.7±12.5 μL) were injected via the lateral vein. At allotted time points (1, 5, 10, 15 min), blood was drawn from the orbital sinus, mice were sacrificed by cervical dislocation and selected organs (heart, lungs, liver and kidney) were excised, weighed and measured for their radioactive content using a γ-counter (1480 Wizard 3″). Distribution of activity was calculated as the percentage of injected dose per gram of organ (% ID/g). Activity uptake ratios of various organs were calculated by dividing the corresponding calculated % ID/gs.
Distribution of activity was calculated as the percentage of injected dose per gram of wet tissue (% ID/g). Activity uptake ratios of various organs were calculated by dividing the corresponding calculated % ID/g. Heart standardized uptake values (SUVs) were calculated by dividing the % ID in the heart of each rat by the percentage of heart weight of the total body weight of the animal.

The next series can be described thus: log P (lipophilicity). The class given is physicochemical. The following applies: n=3, data not shown.

With `CN(C)c1ccc([N+](C)(C)[11CH3])cc1` [[^11C]-3, [^11C](4-dimethylamino-phenyl)-trimethyl-ammonium iodide], the “radioactivity uptake in the heart” value in series [1] (1 min) came out at 48.7 % ID/g; in series [1] (5 min) it was 47.7 % ID/g; in series [1] (10 min), 40.15 % ID/g; in series [1] (15 min), 28.5 % ID/g. Further, in the series “log P (lipophilicity)”, the logP is -0.93 ± 0.1.
